Columns and labels:
[1] = test system: Bacillus megaterium spores; assay: Viability of heat-treated spores after treatment, colony count on nutrient agar; assay type: cell-based; conditions: 10%
Protocol: Bacillus megaterium spores were induced through process of starvation for 2 hours in sterile deionized water and then heated at 90° C. for 20 minutes. The heated samples were treated with 10% of EGCG or EGCG-ester for 1 hour or 24 hours respectively and then plated onto nutrient agar plates with a countable range of 150 to 300 CPU (colony counting unit). The non-starved cells and starved cells without treatment were used as controls.

B. megaterium = assay: Inhibition of endospore germination (outgrowth), plating on nutrient agar; assay type: cell-based, Bacillus megaterium; conditions: for Average Inhibition of Spore Germination: Table 2, B. megaterium, 2 hours treatment; for Average Percent Inhibition of B. megaterium: Table 4 (FIG. 3)
Protocol: (§1) Heated samples were treated with 1, 5, 10% of GTP (mixed green tea polyphenols), LTP (lipophilic green tea polyphenols), EGCg (epigallocatechingallate), or EGCg-Stearate for 2 hours, diluted and plated onto nutrient agar plates, and incubated at 37° C. for 24 hours. Non-starved cells and starved cells without treatment were used as controls.
(§2) Germination, specifically outgrowth, of purified endospores in Bacillus cereus, B. megaterium, and B. subtilis was studied by treating the bacteria with four different green tea polyphenols: GTP (mixed green tea polyphenols), LTP (lipophilic green tea polyphenols), EGCg (epigallocatechingallate), and EGCg-Stearate.

B. cereus = assay: as above; assay type: cell-based, Bacillus cereus; conditions: for Average Inhibition of Spore Germination: Table 2, B. cereus, 2 hours treatment; for Average Percent Inhibition of B. cereus: Table 3 (FIG. 2)
Protocol: as §1, §2

B. subtilis = assay: as above; assay type: cell-based, Bacillus subtilis; conditions: for Average Inhibition of Spore Germination: Table 2, B. subtilis, 2 hours treatment; for Average Percent Inhibition of B. subtilis: Table 5 (FIG. 4)
Protocol: as §1, §2

SMILES | Inhibition of viability of Bacillus megaterium spores compared to the control ([1]; after 24 hours-incubation at 37° C.) | Viable cells or colonies of Bacillus megaterium detected ([1]; both 1 hour and 24 hours treated samples) | Average Inhibition of Spore Germination (B. megaterium; 10%) | Average Percent Inhibition of B. megaterium (B. megaterium; concentration 1%) | Average Percent Inhibition of B. megaterium (B. megaterium; concentration 5%) | Average Percent Inhibition of B. megaterium (B. megaterium; concentration 10%) | Average Inhibition of Spore Germination (B. cereus; 1%) | Average Inhibition of Spore Germination (B. cereus; 5%) | Average Inhibition of Spore Germination (B. cereus; 10%) | Average Percent Inhibition of B. cereus (B. cereus; concentration 1%) | Average Percent Inhibition of B. cereus (B. cereus; concentration 5%) | Average Percent Inhibition of B. cereus (B. cereus; concentration 10%) | Average Inhibition of Spore Germination (B. subtilis; 1%) | Average Inhibition of Spore Germination (B. subtilis; 5%) | Average Inhibition of Spore Germination (B. subtilis; 10%) | Average Percent Inhibition of B. subtilis (B. subtilis; concentration 1%) | Average Percent Inhibition of B. subtilis (B. subtilis; concentration 5%) | Average Inhibition of Spore Germination (B. megaterium; 1%) | Average Inhibition of Spore Germination (B. megaterium; 5%)
O=C(O[C@@H]1Cc2c(O)cc(O)cc2O[C@@H]1c1cc(O)c(O)c(O)c1)c1cc(O)c(O)c(O)c1 [EGCg, (−)-epigallocatechin-3-gallate] | 90% | no viable cells or colonies | 100.0% | 96.39% | 99.48% | 99.85% | 16.9% | 25.7% | 33.0% | 94.18% | 91.68% | 99% | 52.9% | 45.1% | 66.1% | 99.95% | 100% |  | 
CCCCCCCCCCCCCCCCCC(=O)Oc1c(O)cc([C@H]2Oc3cc(O)cc(O)c3C[C@H]2OC(=O)c2cc(O)c(O)c(O)c2)cc1O [EGCg-Stearate, (−)-epigallocatechin-3-gallate (EGCG) esterified at the 4′ position with stearic acid] |  |  | 79.0% | 99.84% | 91.91% | 97.14% | 72.6% | 56.6% | 90.5% | 88.81% | 98.49% | 98% | 55.0% | 58.1% | 69.2% | 99.93% | 98.77% | 70.5% | 75.0%
